Measured values reported in patent publication US20120184583A1, “MODULATORS OF ATP-BINDING CASSETTE TRANSPORTERS” (VERTEX PHARMACEUTICALS INCORPORATED, priority 2003, published 2012).

Key:
[1] = molecular target: T1, ΔF508-CFTR stably expressed in NIH3T3 cells (Homo sapiens, UniProt P13569, DEL508-508); assay: Membrane potential optical (FRET/VIPR) assay for ΔF508-CFTR potentiation; format: cell-based; details: for Emax: NIH3T3, read-out: % Efficacy (relative modulating efficacy in comparison with genistein), normalized to peak genistein response
T1 construct: expressed in transfected cells
T1 sequence (P13569 with tags, fused parts or gaps DEL508-508): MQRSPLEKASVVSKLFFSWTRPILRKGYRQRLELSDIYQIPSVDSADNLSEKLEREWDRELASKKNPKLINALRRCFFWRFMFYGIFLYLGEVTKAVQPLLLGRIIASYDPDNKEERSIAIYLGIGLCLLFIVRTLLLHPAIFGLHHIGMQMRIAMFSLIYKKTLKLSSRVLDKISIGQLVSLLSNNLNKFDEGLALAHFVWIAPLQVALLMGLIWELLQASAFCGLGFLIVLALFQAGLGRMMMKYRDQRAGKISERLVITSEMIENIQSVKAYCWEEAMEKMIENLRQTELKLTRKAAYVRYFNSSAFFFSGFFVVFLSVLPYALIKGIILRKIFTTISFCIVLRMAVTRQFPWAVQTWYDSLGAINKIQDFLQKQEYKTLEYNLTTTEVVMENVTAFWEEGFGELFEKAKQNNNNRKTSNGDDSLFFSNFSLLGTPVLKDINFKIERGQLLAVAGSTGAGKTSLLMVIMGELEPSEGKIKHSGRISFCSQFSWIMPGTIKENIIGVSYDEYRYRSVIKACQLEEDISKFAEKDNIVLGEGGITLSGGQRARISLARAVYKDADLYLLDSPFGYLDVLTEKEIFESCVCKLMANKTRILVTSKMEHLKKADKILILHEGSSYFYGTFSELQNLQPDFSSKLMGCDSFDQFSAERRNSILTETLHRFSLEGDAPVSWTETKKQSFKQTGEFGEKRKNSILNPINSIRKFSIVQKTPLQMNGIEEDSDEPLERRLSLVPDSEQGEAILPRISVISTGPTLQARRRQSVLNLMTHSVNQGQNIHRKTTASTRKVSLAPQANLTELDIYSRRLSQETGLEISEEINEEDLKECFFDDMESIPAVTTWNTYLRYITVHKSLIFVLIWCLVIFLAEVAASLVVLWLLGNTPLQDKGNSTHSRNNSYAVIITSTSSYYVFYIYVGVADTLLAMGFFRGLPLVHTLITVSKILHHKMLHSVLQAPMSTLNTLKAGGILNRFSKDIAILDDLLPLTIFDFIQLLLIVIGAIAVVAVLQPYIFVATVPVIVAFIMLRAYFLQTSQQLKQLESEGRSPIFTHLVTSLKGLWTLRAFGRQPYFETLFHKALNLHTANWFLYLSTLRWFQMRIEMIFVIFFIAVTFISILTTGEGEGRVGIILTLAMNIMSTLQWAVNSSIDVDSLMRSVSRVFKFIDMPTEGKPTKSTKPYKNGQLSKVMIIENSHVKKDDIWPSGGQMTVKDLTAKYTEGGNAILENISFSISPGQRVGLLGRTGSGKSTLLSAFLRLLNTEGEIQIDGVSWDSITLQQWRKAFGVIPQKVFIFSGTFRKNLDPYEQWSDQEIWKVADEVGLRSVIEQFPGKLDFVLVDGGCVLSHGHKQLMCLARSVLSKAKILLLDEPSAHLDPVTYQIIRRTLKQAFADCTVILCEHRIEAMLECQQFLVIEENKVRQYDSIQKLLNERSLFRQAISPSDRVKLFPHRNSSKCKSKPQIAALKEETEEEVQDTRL
From the text: Membrane potential optical methods for assaying ΔF508-CFTR potentiation properties of compounds.
These voltage sensitive assays are based on the change in fluorescence resonant energy transfer (FRET) between the membrane-soluble, voltage-sensitive dye, DiSBAC2(3), and a fluorescent phospholipid, CC2-DMPE, which is attached to the outer leaflet of the plasma membrane and acts as a FRET donor. Changes in membrane potential (Vm) cause the negatively charged DiSBAC2(3) to redistribute across the plasma membrane and the amount of energy transfer from CC2-DMPE changes accordingly. The changes in fluorescence emission were monitored using VIPR™ II, which is an integrated liquid handler and fluorescent detector designed to conduct cell-based screens in 96- or 384-well microtiter plates.
To identify potentiators of ΔF508-CFTR, a double-addition HTS assay format was developed (FIG. 1A). During the first addition, a Cl^−-free medium with or without test compound was added to each well. After 22 sec, a second addition of Cl^−-free medium containing 2-10 μM forskolin was added to activate ΔF508-CFTR. The extracellular Cl^− concentration following both additions was 28 mM, which promoted Cl^− efflux in response to ΔF508-CFTR activation and the resulting membrane depolarization was optically monitored using the FRET-based voltage-sensor dyes. The double-addition format has several advantages. First, it enables separation of compounds that act independently of forskolin-activated ΔF508-CFTR. Second, it allows compounds that act from the cytoplasmic surface of the channel to cross the plasma membrane and take effect. Lastly, fluorescent changes that arise from test compound addition alone can be identified.
High-throughput assay format for identifying potentiators of ΔF508-CFTR stably expressed in NIH3T3 cells.
FIG. 1A: Double-addition assay format in which Cl^−-free medium was added with or without the test compound prior to forskolin addition. The cells were incubated at 27° C. for 16-24 hr prior to use.
• Bath Solution #1: (in mM)NaCl 160, KCl 4.5, CaCl2 2, MgCl2 1, HEPES 10, pH 7.4 with NaOH. • Chloride-free bath solution: Chloride salts in Bath Solution #1 are substituted with gluconate salts. • CC2-DMPE: Prepared as a 10 mM stock solution in DMSO and stored at −20° C. • DiSBAC2(3): Prepared as a 10 mM stock in DMSO and stored at −20° C.
NIH3T3 mouse fibroblasts stably expressing ΔF508-CFTR are used for optical measurements of membrane potential. The cells are maintained at 37° C. in 5% CO2 and 90% humidity in Dulbecco's modified Eagle's medium supplemented with 2 mM glutamine, 10% fetal bovine serum, 1×NEAA, β-ME, 1×pen/strep, and 25 mM HEPES in 175 cm^2 culture flasks. For all optical assays, the cells were seeded at 30,000/well in 384-well matrigel-coated plates and cultured for 2 hrs at 37° C. before culturing at 27° C. for 24 hrs.

[2] = molecular target: T2, ΔF508-CFTR expressed in FRT epithelial cells (Homo sapiens, UniProt P13569, DEL508-508); assay: Ussing chamber assay, short-circuit current in FRT epithelia; format: cell-based
T2 construct: expressed in transfected cells; host or cells: Fisher rat epithelial (FRT) cells, vector-infected
T2 sequence (P13569 with tags, fused parts or gaps DEL508-508): as above
Procedure: FRT^ΔF508-CFTR epithelial cells grown on Costar Snapwell cell culture inserts were mounted in an Ussing chamber (Physiologic Instruments, Inc., San Diego, Calif.), and the monolayers were continuously short-circuited using a Voltage-clamp System (Department of Bioengineering, University of Iowa, Iowa, and, Physiologic Instruments, Inc., San Diego, Calif.). Transepithelial resistance was measured by applying a 2-mV pulse. […] Typical protocol utilized a basolateral to apical membrane Cl^− concentration gradient. To set up this gradient, normal ringers was used on the basolateral membrane and was permeabilized with nystatin (360 μg/ml), whereas apical NaCl was replaced by equimolar sodium gluconate (titrated to pH 7.4 with NaOH) to give a large Cl concentration gradient across the epithelium. All experiments were performed 30 min after nystatin permeabilization. The solutions were maintained at 27° C. and bubbled with air. The electrode offset potential and fluid resistance were corrected using a cell-free insert. Under these conditions, the current reflects the flow of Cl^− through ΔF508-CFTR expressed in the apical membrane. The ISC was digitally acquired using an MP100A-CE interface and AcqKnowledge software (version 3.2.6; BIOPAC Systems, Santa Barbara, Calif.). Forskolin (10 μM) and all test compounds were added to both sides of the cell culture inserts. […]

Compound | Emax [1] | other results
Oc1ccccc1-c1cc(-c2c(F)cccc2F)n[nH]1 [IA-78] | 35 to 75% | –
Cc1ccc(O)c(-c2cc(-c3cccc([N+](=O)[O-])c3)n[nH]2)c1 [IA-87] | 35 to 75% | –
Cc1ccc(-c2cc(-c3ccc(C)cc3O)n[nH]2)cc1 [IA-82] | 35 to 75% | –
Cc1ccc(O)c(-c2cc(-c3cc(C(C)(C)C)oc3C)n[nH]2)c1 [IA-50] | 35 to 75% | –
Oc1ccc(-c2nnn[nH]2)cc1-c1cc(-c2ccccc2)n[nH]1 [IA-54] | 35 to 75% | –
Fc1ccccc1-c1cc(-c2cccc(Cl)c2)[nH]n1 [I-9] | 35 to 75% | –
Oc1ccccc1-c1cc(-c2ccc(C(F)(F)F)cc2F)n[nH]1 [IA-98] | 35 to 75% | –
Oc1ccccc1-c1cc(-c2cccc(F)c2)[nH]n1 [IA-81] | 35 to 75% | –
Cc1ccccc1-c1cc(-c2ccccc2O)n[nH]1 [IA-24] | 35 to 75% | –
Oc1cc(F)ccc1-c1cc(-c2ccccc2)[nH]n1 [IA-70] | 35 to 75% | –
COc1ccc(-c2cc(-c3cc(C)ccc3O)[nH]n2)cc1C(F)(F)F [IA-72] | 35 to 75% | –
COc1ccc(O)c(-c2cc(-c3ccc(F)cc3)[nH]n2)c1 [IA-2] | 35 to 75% | –
Cc1ccc(O)c(-c2cc(-c3cc(C(F)(F)F)nn3-c3ccc([N+](=O)[O-])cc3)n[nH]2)c1 [IA-65] | 35 to 75% | –
COc1ccc(O)c(-c2cc(-c3ccccc3C)[nH]n2)c1 [IA-62] | 35 to 75% | –
CCCSc1ncccc1-c1cc(-c2ccccc2)n[nH]1 [I-5] | 35 to 75% | –
Cc1ccc(O)c(-c2cc(-c3cc(C)on3)n[nH]2)c1 [IA-107] | 35 to 75% | –
Oc1cccc(-c2cc(-c3ccccc3O)[nH]n2)c1 [IA-43] | > 75% | –
Cc1ccc(O)c(-c2cc(-c3ccc(-c4ccc(S(C)(=O)=O)cc4)o3)n[nH]2)c1 [IA-76] | 35 to 75% | –
Fc1ccccc1-c1cc(-c2cccc(OC(F)(F)F)c2)[nH]n1 [I-18] | 35 to 75% | –

Compound | Emax [1] | other results
O=c1c(-c2ccc(O)cc2)coc2cc(O)cc(O)c12 [genistein, reference compound] | – | ISC potentiated to ([2]; genistein 50 μM added after forskolin 10 μM, n=8): 21±1.5 μA/cm^2; stimulation of ISC when applied prior to forskolin addition ([2]; no forskolin, data not shown): did not stimulate; effect on forskolin-induced membrane depolarization [1]: augmented; membrane potential response in the absence of forskolin addition ([1]; data not shown): no response; potentiation of the forskolin-induced response ([1]; optical assay, n=35): 72.8±7.2%
Fc1ccccc1-c1cc(-c2ccccc2Cl)[nH]n1 [I-7] | 35 to 75% | –
COc1cccc(O)c1-c1cc(-c2ccccc2)n[nH]1 [IA-3] | 35 to 75% | –
CCCc1ccc(O)c(-c2cc(-c3ccccc3)[nH]n2)c1 [IA-14] | > 75% | –
Oc1ccc(Cl)cc1-c1cc(-c2ccc(C(F)(F)F)cc2)[nH]n1 [IA-90] | 35 to 75% | –
Cc1ccc(O)c(-c2cc(-c3ccc(-c4cccc(C(F)(F)F)c4)o3)n[nH]2)c1 [IA-7] | 35 to 75% | –
O=[N+]([O-])c1ccccc1-c1cc(-c2ccccc2O)n[nH]1 [IA-97] | 35 to 75% | –
c1ccc(-c2cc(-c3cccc4c3OCO4)[nH]n2)cc1 [I-15] | 35 to 75% | –
COc1cccc(-c2n[nH]c(-c3ccccc3O)c2OC)c1 [IA-38] | 35 to 75% | –
COc1ccc(O)c(-c2cc(-c3ccccc3Cl)[nH]n2)c1 [IA-55] | 35 to 75% | –
Oc1ccccc1-c1cc(-c2ccccc2Cl)[nH]n1 [IA-113] | – | % Efficacy (relative modulating efficacy in comparison with genistein) ([1]; normalized to peak genistein response): + (an efficacy range of <35% when compared to genistein)
Cc1ccc(O)c(-c2cc(-c3cc(C(F)(F)F)oc3C)n[nH]2)c1 [IA-42] | > 75% | –
Cc1ccc(O)c(-c2cc(-c3ccc4c(c3)OCO4)n[nH]2)c1 [IA-25] | 35 to 75% | –
COc1ccc(-c2cc(-c3ccc(C)cc3O)n[nH]2)cc1 [IA-100] | 35 to 75% | –
Oc1ccc(-c2cc(-c3ccccc3O)[nH]n2)cc1 [IA-33] | 35 to 75% | –
CCSc1ncccc1-c1cc(-c2ccccc2)n[nH]1 [I-3] | 35 to 75% | –
CCOc1ncccc1-c1cc(-c2ccccc2O)[nH]n1 [IA-101] | 35 to 75% | –
Cc1ccc(O)c(-c2cc(C3CCCCC3)n[nH]2)c1 [IA-71] | 35 to 75% | –
CC(=O)Nc1cccc(-c2cc(-c3cc(C)ccc3O)[nH]n2)c1 [IA-40] | 35 to 75% | –

Now from value to molecule, other results behind:

Emax [1] | Compound | other results
35 to 75% | COc1ccc(O)c(-c2cc(-c3cccnc3Oc3ccccc3)[nH]n2)c1 [IA-77] | –
35 to 75% | Cc1ccc(O)c(-c2cc(-c3ccccc3-c3ccncc3)n[nH]2)c1 [IA-29] | –
35 to 75% | Cc1ccc(O)c(-c2cc(-c3ccc([N+](=O)[O-])cc3)n[nH]2)c1 [IA-102] | –
< 35% | Cc1ccc(O)c(-c2cc(-c3ccccc3Cl)[nH]n2)c1 [IA-48] | –
35 to 75% | COc1cccc(-c2cc(-c3cc(C)ccc3O)[nH]n2)c1 [IA-66] | –
35 to 75% | Cc1ccc(O)c(-c2cc(-c3ccc(OCc4ccccc4)cc3)n[nH]2)c1 [IA-10] | –
35 to 75% | Cc1ccc(O)c(-c2cc(-c3cccc(C)c3C)n[nH]2)c1 [IA-53] | –
< 35% | Cc1ccc(O)c(-c2cc(-c3ccccc3SC(F)F)n[nH]2)c1 [IA-79] | –
35 to 75% | Cc1ccc(O)c(-c2cc(-c3ccccc3Oc3ccccc3)n[nH]2)c1 [IA-84] | –
35 to 75% | Cc1ccc(O)c(-c2cc(-c3ccc(F)c(F)c3)n[nH]2)c1 [IA-44] | –
35 to 75% | Cc1ccc(O)c(-c2cc(-c3cccc(C(F)(F)F)c3C)n[nH]2)c1 [IA-74] | –
35 to 75% | Cc1ccc(O)c(-c2cc(-c3c(Cl)cccc3Cl)n[nH]2)c1 [IA-105] | –
35 to 75% | Cc1ccc(-c2cc(-c3cc(C)ccc3O)n[nH]2)cc1 [IA-59] | –
> 75% | Cc1ccc(O)c(-c2cc(-c3ccc(Br)cc3)[nH]n2)c1 [IA-35] | –
< 35% | Cc1ccc(O)c(-c2cc(-c3cc(Cl)ccc3F)n[nH]2)c1 [IA-115] | –
35 to 75% | Cc1ccc(-c2cc(-c3ccccc3Cl)[nH]n2)c(O)c1 [IA-58] | –
35 to 75% | Cc1ccc(O)c(-c2cc(-c3ccc(F)c(Cl)c3)n[nH]2)c1 [IA-51] | –
35 to 75% | Cc1ccc(O)c(-c2cc(-c3cccnc3Sc3ccc(Cl)cc3)n[nH]2)c1 [IA-86] | –
< 35% | Cc1ccc(O)c(-c2cc(-c3ccccc3O)n[nH]2)c1 [IA-34] | –
35 to 75% | Cc1ccc(O)c(-c2cc(-c3cc(Cl)ccc3C(F)(F)F)n[nH]2)c1 [IA-89] | –
35 to 75% | CCOc1ccccc1-c1cc(-c2cc(C)ccc2O)[nH]n1 [IA-80] | –
35 to 75% | Oc1ccc(Cl)cc1-c1cc(-c2ccc(F)cc2)[nH]n1 [IA-88] | –
